ChEMBL document CHEMBL5257061, “Structural Study of Potent Triazole-Based Inhibitors of Staphylococcus aureus Biotin Protein Ligase” (ACS Med Chem Lett, 2023)
≈ marks a conversion by molar mass, not a printed value.

What was measured:
[1] = Inhibition of recombinant Staphylococcus aureus C-terminal hexahistidine tagged Biotin protein ligase expressed in Escherichia coli BL21 (DE3) assessed as inhibition constant incubated for 30 mins by [3H]-Biotin incorporation based radioactivity based assay
[2] = Inhibition of recombinant Staphylococcus aureus C-terminal hexahistidine tagged Biotin protein ligase expressed in Escherichia coli BL21 (DE3) assessed as inhibition constant incubated for 10 mins in presence of ATP by [3H]-Biotin incorporation based liquid scintillation counting analysis
Staphylococcus aureus [3] = assay: Antibacterial activity against Staphylococcus aureus ATCC 49775 assessed as inhibition of bacterial growth; assay type: functional
[4] = Inhibition of Staphylococcus aureus Biotin protein ligase assessed as inhibition constant
Staphylococcus aureus [5] = assay: Antibacterial activity against Staphylococcus aureus ATCC 49775 assessed as inhibition of bacterial growth incubated for 16 to 20 hrs by CLSI protocol based two-fold serial dilution method; assay type: functional; conditions: time 16-20 hrs
[6] = Inhibition of Staphylococcus aureus Biotin protein ligase assessed as inhibition constant by biotinylation assay

SMILES	MIC (Staphylococcus aureus [5])	Ki [6]	other results
Nc1ncnc2c1ncn2[C@@H]1O[C@H](COP(=O)(O)OCCCCC[C@@H]2SC[C@@H]3NC(=O)N[C@@H]32)[C@@H](O)[C@H]1O			Ki [1]: 30 nM
Cc1ccc2oc(=O)n(CCCCn3cc(CCCCC[C@@H]4SC[C@@H]5NC(=O)N[C@@H]54)nn3)c2c1			Ki [2]: 230 nM
O=C1N[C@H]2[C@H](CS[C@H]2CCCCCc2cn(Cc3cccc(F)c3)nn2)N1			Ki [2]: 670 nM
O=C1N[C@H]2[C@H](CS[C@H]2CCCCCc2cn(Cc3ccc(C(=O)O)cc3)nn2)N1			Ki [2]: 280 nM
Nc1cc(CNC(=O)c2ccc(C(c3cccc(F)c3)n3cc(CCCCC[C@@H]4SC[C@@H]5NC(=O)N[C@@H]54)nn3)cc2)ccn1 (some centres not stated)			MIC (Staphylococcus aureus [3]): 8 µg/mL (≈ 13 µM); Ki [4]: 8.43 nM
NCCCNC(=O)c1ccc(C(c2cccc(F)c2)n2nnc(CCCCC[C@@H]3SC[C@@H]4NC(=O)N[C@@H]43)c2F)cc1 (some centres not stated)	> 64 µg/mL	268 nM	
NC(=O)CCCCNC(=O)c1ccc(C(c2cccc(F)c2)n2cc(CCCCC[C@@H]3SC[C@@H]4NC(=O)N[C@@H]43)nn2)cc1 (some centres not stated)	> 64 µg/mL	246 nM	
O=C1N[C@H]2[C@H](CS[C@H]2CCCCCc2cn(C(c3ccc(C(=O)NCc4ccncc4)cc3)c3cccc(F)c3)nn2)N1 (some centres not stated)	> 64 µg/mL	130 nM	
O=C1N[C@H]2[C@H](CS[C@H]2CCCCCc2cn(C(c3ccc(C(=O)NCc4ccccn4)cc3)c3cccc(F)c3)nn2)N1 (some centres not stated)	> 64 µg/mL	544 nM	
Cc1ccc2oc(=O)n(CCCCn3nnc(CCCCC[C@@H]4SC[C@@H]5NC(=O)N[C@@H]54)c3F)c2c1			Ki [2]: 420 nM
Nc1ncnc2c1ncn2[C@@H]1O[C@H](Cn2cc(CCCCC[C@@H]3SC[C@@H]4NC(=O)N[C@@H]43)nn2)[C@@H](O)[C@H]1O			Ki [1]: 1170 nM
NC(=O)CCCNC(=O)c1ccc(C(c2cccc(F)c2)n2cc(CCCCC[C@@H]3SC[C@@H]4NC(=O)N[C@@H]43)nn2)cc1 (some centres not stated)	4 µg/mL (≈ 6.74 µM)	10 nM	
NCCCNC(=O)c1ccc(C(c2cccc(F)c2)n2cc(CCCCC[C@@H]3SC[C@@H]4NC(=O)N[C@@H]43)nn2)cc1 (some centres not stated)	8 µg/mL (≈ 14.1 µM)	30 nM	
Nc1cc(CNC(=O)c2ccc(C(c3cccc(F)c3)n3nnc(CCCCC[C@@H]4SC[C@@H]5NC(=O)N[C@@H]54)c3F)cc2)ccn1 (some centres not stated)	> 64 µg/mL	131 nM	
O=C1N[C@H]2[C@H](CS[C@H]2CCCCCc2cn(C(c3ccc(C(=O)NCCc4c[nH]cn4)cc3)c3cccc(F)c3)nn2)N1 (some centres not stated)			MIC (Staphylococcus aureus [3]): 1 µg/mL (≈ 1.66 µM); Ki [4]: 6.01 nM
O=C1N[C@H]2[C@H](CS[C@H]2CCCCCc2cn(C(c3ccc(C(=O)NCCCc4c[nH]cn4)cc3)c3cccc(F)c3)nn2)N1 (some centres not stated)	32 µg/mL (≈ 51.9 µM)	181 nM	
Nc1ccc(CNC(=O)c2ccc(C(c3cccc(F)c3)n3cc(CCCCC[C@@H]4SC[C@@H]5NC(=O)N[C@@H]54)nn3)cc2)cc1 (some centres not stated)	> 64 µg/mL	63 nM	
O=C1N[C@H]2[C@H](CS[C@H]2CCCCCc2cn(C(c3ccc(C(=O)NCc4cccnc4)cc3)c3cccc(F)c3)nn2)N1 (some centres not stated)	> 64 µg/mL	237 nM	
O=C1N[C@H]2[C@H](CS[C@H]2CCCCCc2cn(C(c3ccc(C(=O)NCc4ccccc4)cc3)c3cccc(F)c3)nn2)N1 (some centres not stated)	> 64 µg/mL	867 nM	
